Reference: patent publication US20260274876A1, “3-PYRROLIDINE-INDOLE DIMERS AS SEROTONERGIC AGENTS USEFUL FOR THE TREATMENT OF DISORDERS RELATED THERETO” (MINDSET PHARMA INC., priority 2022, published 2026)
Like-named read-outs stand apart in the source and are kept apart here.

Columns and labels:
human 5-HT2A receptor = human 5-HT2A receptor (Homo sapiens, UniProt P28223); assay: Human 5-HT2A radioligand binding assay ([3H]-ketanserin)
Experimental: The objective of this study was to evaluate the binding properties of exemplary compounds of Formula I on 5-hydroxytryptamine receptor 2A (5-HT2A).
(§1) • 1. The assay buffer was prepared following the table below.
• 2. 8 doses of reference and test compounds starting from 10 mM stock solution as required was prepared by 5-fold serial dilutions with 100% (v/v) DMSO. • 3. UniFilter-96 GF/B plate was pretreated: • i. 50 μl/well of 0.5% (v/v) PEI was added to […]. The plates were sealed and incubated at […] for 3 hrs. • ii. After incubation, the plates were washed 3 times with ice-cold wash buffer (50 mM Tris, pH7.4). • 4. The assay plate was prepared: • i. Cell membrane was diluted with assay buffer and 330 μl/well was added to 96 round deep well plates to reach a concentration of 20 μg/well. • ii. 8 concentrations of reference or test compounds were prepared and 110 μl/well was added to 96 round deep well plates. • iii. [3H]-ketanserin was diluted with assay buffer to 5 nM (5×final concentration) and 110 μl/well was added to 96 round deep well plates. • 5. The plate was centrifuged at 1000 rpm for 30 secs and then agitated at 600 rpm, R.T. for 5 min. • 6. The plates were sealed and the plate incubated at 279C for 90 min. • 7. The incubation was stopped by vacuum filtration onto GF/B filter plates followed by 4 times washing with ice-cold wash buffer (50 mM Tris, pH7.4). • 8. The plates were dried at 379C for 45 min. • 8. The filter plates were sealed and 40 μl/well of scintillation cocktail was added. • 10. The plate was read by using a Microbeta^2 microplate counter.
(§2) • 1. For reference and test compounds, the results were expressed as % Inhibition, using the normalization equation: N=100−100×(U−C2)/(C1−C2), where U is the unknown value, C1 is the average of high controls, and C2 is the average of low controls. • 2. The IC50 was determined by fitting percentage of inhibition as a function of compound concentrations with Hill equation using XLfit.

human 5-HT1A receptor = molecular target: T1, human 5-HT1A receptor (Homo sapiens, UniProt P08908); assay: Human 5-HT1A radioligand binding assay ([3H]-8-Hydroxy-DPAT)
T1 sequence (P08908 1-422): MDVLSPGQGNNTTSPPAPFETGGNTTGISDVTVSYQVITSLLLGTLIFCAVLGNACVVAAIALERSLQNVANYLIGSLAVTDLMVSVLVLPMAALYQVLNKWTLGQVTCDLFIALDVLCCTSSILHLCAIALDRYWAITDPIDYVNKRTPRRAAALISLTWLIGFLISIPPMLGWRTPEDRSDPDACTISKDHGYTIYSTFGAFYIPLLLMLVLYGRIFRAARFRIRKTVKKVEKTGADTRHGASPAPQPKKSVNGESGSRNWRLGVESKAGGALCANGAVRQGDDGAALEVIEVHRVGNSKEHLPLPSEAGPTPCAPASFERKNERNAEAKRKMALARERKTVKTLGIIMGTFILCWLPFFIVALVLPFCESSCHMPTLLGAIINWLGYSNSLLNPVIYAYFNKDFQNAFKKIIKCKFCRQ
Experimental: The objective of this study was to evaluate the binding properties of test compounds on 5-hydroxytryptamine receptor 1A (5-HT1A).
as §1
• 2. 8 doses of reference and test compounds were prepared starting from 10 mM stock solution as required by 5-fold serial dilutions with 100% (v/v) DMSO. • 3. UniFilter-96 GF/B plate was pretreated: • i. 50 μl/well of 0.5% (v/v) PEI was added to UniFilter-96 GF/B plates. The plates were sealed and incubated at 4° C. for 3 hrs. • ii. After incubation, the plates were washed 3 times with ice-cold wash buffer (50 mM Tris, pH7.4). • 4. Assay plate was prepared: • i. Cell membrane was diluted with assay buffer and 100 μl/well was added to 96 round well plates to reach a concentration of 20 μg/well. • ii. 8 concentrations of reference or test compounds were prepared and 50 μl/well was added to 96 round deep well plates. • iii. [3H]-8-Hydroxy-DPAT was diluted with assay buffer to 2 nM (4×final concentration) and 50 μl/well was added to 96 round well plates. • 5. The plate was centrifuged at 1000 rpm for 30 secs and then agitated at 600 rpm, R.T. for 5 min. • 6. The plates were sealed and the plate was incubated at 27° C. for 90 min. • 7. The incubation was stopped by vacuum filtration onto GF/B filter plates followed by 4 times washing with ice-cold wash buffer (50 mM Tris, pH7.4). • 8. The plates were dried at 37° C. for 45 min. • 9. The filter plates were sealed and 40 μl/well of scintillation cocktail was added. • 10. The plate was read by using a Microbeta^2 microplate counter.
as §2, with “[…]” for “function”

Plasma stability, human = assay type: in vitro ADME
Experimental: (§3) • a. […] The final concentration of organic solvents was 0.5%. The assay was performed in duplicated. • b.
(§4) All calculations were carried out using Microsoft Excel.

Plasma stability, dog = assay type: in vitro ADME; details: for half-life: 37° C.
Experimental: as §3, §4

Plasma stability, rat = assay type: in vitro ADME
Experimental: as §3, §4

Plasma stability, mouse = assay type: in vitro ADME
Experimental: as §3, §4

Sequence of human 5-HT2A receptor (P28223 whole entry): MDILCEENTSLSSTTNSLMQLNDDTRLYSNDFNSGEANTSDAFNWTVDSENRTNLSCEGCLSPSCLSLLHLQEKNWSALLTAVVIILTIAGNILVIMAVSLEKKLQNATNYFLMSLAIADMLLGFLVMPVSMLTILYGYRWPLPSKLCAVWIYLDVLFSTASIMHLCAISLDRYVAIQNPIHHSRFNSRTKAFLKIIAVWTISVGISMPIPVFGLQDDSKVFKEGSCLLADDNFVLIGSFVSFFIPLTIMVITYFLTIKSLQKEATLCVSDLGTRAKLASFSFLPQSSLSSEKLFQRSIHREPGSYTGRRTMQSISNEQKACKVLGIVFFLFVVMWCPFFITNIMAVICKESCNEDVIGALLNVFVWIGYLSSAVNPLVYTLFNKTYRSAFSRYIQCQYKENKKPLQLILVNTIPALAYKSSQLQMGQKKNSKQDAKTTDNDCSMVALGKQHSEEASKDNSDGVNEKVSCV

SMILES | IC50 (human 5-HT2A receptor) [nM] | IC50 (human 5-HT1A receptor) [nM] | Remaining Percentage (%) 0 min (Plasma stability, human) [%] | Remaining Percentage (%) 30 min (Plasma stability, human) [%] | Remaining Percentage (%) 60 min (Plasma stability, human) [%] | Remaining Percentage (%) 120 min (Plasma stability, human) [%] | Remaining Percentage (%) 180 min (Plasma stability, human) [%] | Remaining Percentage (%) 240 min (Plasma stability, human) [%] | Remaining Percentage (%) 0 min (Plasma stability, dog) [%] | half-life (Plasma stability, dog) [min] | Remaining Percentage (%) 30 min (Plasma stability, dog) [%] | Remaining Percentage (%) 60 min (Plasma stability, dog) [%] | Remaining Percentage (%) 120 min (Plasma stability, dog) [%] | Remaining Percentage (%) 180 min (Plasma stability, dog) [%] | Remaining Percentage (%) 240 min (Plasma stability, dog) [%] | Remaining Percentage (%) 0 min (Plasma stability, rat) [%] | Remaining Percentage (%) 30 min (Plasma stability, rat) [%] | Remaining Percentage (%) 60 min (Plasma stability, rat) [%] | Remaining Percentage (%) 120 min (Plasma stability, rat) [%] | Remaining Percentage (%) 180 min (Plasma stability, rat) [%] | other results
CN1CCC[C@@H]1Cc1c[nH]c2cccc(O)c12 [Compound 10, (R)-3-((1-methylpyrrolidin-2-yl)methyl)-1H-indol-4-ol] | 219 | 148 |  |  |  |  |  |  |  |  |  |  |  |  |  |  |  |  |  |  | 
[2H]C([2H])(c1c[nH]c2cccc(O)c12)[C@H]1CCCN1C([2H])([2H])[2H] [Compound 13, (R)-3-((1-(methyl-d3)pyrrolidin-2-yl)methyl-d2)-1H-indol-4-ol] | 219 | 156 |  |  |  |  |  |  |  |  |  |  |  |  |  |  |  |  |  |  | 
CN1CCC[C@@H]1Cc1c[nH]c2cccc(OC(=O)CCCC(=O)Oc3cccc4[nH]cc(C[C@H]5CCCN5C)c34)c12 [Compound I-13, Bis(3-(((R)-1-methylpyrrolidin-2-yl)methyl)-1H-indol-4-yl) glutarate] | 37 | 154 | 100.00 | 0.00 | 0.00 | 0.00 | 0.00 | 0.00 | 100.00 | 49.2 | 67.21 | 44.90 | 15.17 | 8.32 | 3.48 | 100.00 | 0.00 | 0.00 | 0.00 | 0.00 | Remaining Percentage (%) 240 min (Plasma stability, rat): 0.00%; Remaining Percentage (%) 0 min (Plasma stability, mouse): 100.00%; Remaining Percentage (%) 30 min (Plasma stability, mouse): 0.00%; Remaining Percentage (%) 60 min (Plasma stability, mouse): 0.00%; Remaining Percentage (%) 120 min (Plasma stability, mouse): 0.00%; Remaining Percentage (%) 180 min (Plasma stability, mouse): 0.00%; Remaining Percentage (%) 240 min (Plasma stability, mouse): 0.00%
[2H]C([2H])(c1c[nH]c2cccc(OC(=O)CCCC(=O)Oc3cccc4[nH]cc(C([2H])([2H])[C@H]5CCCN5C([2H])([2H])[2H])c34)c12)[C@H]1CCCN1C([2H])([2H])[2H] [Compound I-22, bis(3-(((R)-1-(methyl-d3)pyrrolidin-2-yl)methyl-d2)-1H-indol-4-yl) glutarate] | 44.8 | 124 | 100.00 | 0.00 | 0.00 | 0.00 | 0.00 | 0.00 | 100.00 | 24.9 | 39.05 | 14.86 | 3.51 | 0.92 | 0.56 | 100.00 | 0.00 | 0.00 | 0.00 | 0.00 | Remaining Percentage (%) 240 min (Plasma stability, rat): 0.00%; Remaining Percentage (%) 0 min (Plasma stability, mouse): 100.00%; Remaining Percentage (%) 30 min (Plasma stability, mouse): 0.00%; Remaining Percentage (%) 60 min (Plasma stability, mouse): 0.00%; Remaining Percentage (%) 120 min (Plasma stability, mouse): 0.00%; Remaining Percentage (%) 180 min (Plasma stability, mouse): 0.00%; Remaining Percentage (%) 240 min (Plasma stability, mouse): 0.00%
CN(C)CCc1c[nH]c2cccc(O)c12 [Psilocin, 4-hydroxy-N,N-dimethyltryptamine, reference compound] |  |  |  |  |  |  |  |  |  |  |  |  |  |  |  |  |  |  |  |  | IC50 (human 5-HT1A receptor; radioligand binding, [3H]-8-Hydroxy-DPAT, read-out: h5-HT1A, IC50): 196 nM
